Test results reported in the NIST ThermoML archive (doi:10.1016/j.jct.2016.01.019).

Assay: refractive index (other wavelength) (dimensionless); xn = mol fraction of the nth substance listed
Settings: 94.64 kPa, Liquid, Standard Abbe refractometry

OCCCO [propan-1,3-diol] + CC(O)CO
refractive index
Settings	x2 = 0	x2 = 0.0985	x2 = 0.2023	x2 = 0.3015	x2 = 0.3961	x2 = 0.5009	x2 = 0.5961	x2 = 0.6965	x2 = 0.7974	x2 = 0.8985
293.15 K, Wavelength=404.7 nm	1.45177	1.45152	1.45117	1.45077	1.45025	1.44969	1.44909	1.44823	1.44738	1.44618
293.15 K, Wavelength=435.8 nm	1.44842	1.44817	1.44786	1.44741	1.44688	1.44623	1.4456	1.44492	1.44401	1.44315
293.15 K, Wavelength=486.1 nm	1.4444	1.44417	1.44386	1.44341	1.4429	1.44217	1.44132	1.44021	1.43935	1.43821
293.15 K, Wavelength=546.1 nm	1.44112	1.44088	1.44041	1.44013	1.43961	1.43884	1.43806	1.43695	1.4362	1.43491
293.15 K, Wavelength=587.6 nm	1.43939	1.43913	1.43875	1.4384	1.43788	1.43721	1.43623	1.43524	1.43439	1.43321
293.15 K, Wavelength=632.8 nm	1.43781	1.43756	1.43729	1.43683	1.43632	1.43545	1.43467	1.43369	1.43253	1.43168
293.15 K, Wavelength=644 nm	1.43746	1.43722	1.43699	1.43649	1.43597	1.43501	1.43435	1.43334	1.43219	1.43133
293.15 K, Wavelength=706.5 nm	1.43577	1.43555	1.43506	1.43479	1.43428	1.43373	1.43315	1.43207	1.4311	1.42985
298.15 K, Wavelength=404.7 nm	1.45037	1.44979	1.44932	1.4489	1.44849	1.44768	1.44694	1.44595	1.44515	1.44396
298.15 K, Wavelength=435.8 nm	1.447	1.44654	1.44606	1.44553	1.44512	1.44432	1.4436	1.44261	1.44156	1.44059
298.15 K, Wavelength=486.1 nm	1.44301	1.44246	1.44198	1.44156	1.44107	1.44037	1.43963	1.43868	1.43776	1.43667
298.15 K, Wavelength=546.1 nm	1.43975	1.43919	1.43879	1.4383	1.43762	1.43712	1.43618	1.43541	1.43467	1.43341
298.15 K, Wavelength=587.6 nm	1.43802	1.43746	1.437	1.43658	1.43619	1.43539	1.43469	1.43371	1.43285	1.43168
298.15 K, Wavelength=632.8 nm	1.43645	1.4359	1.43532	1.43502	1.43462	1.43383	1.43322	1.43217	1.43136	1.43004
298.15 K, Wavelength=644 nm	1.43611	1.43555	1.43498	1.43455	1.43428	1.43349	1.433	1.43183	1.43102	1.4298
298.15 K, Wavelength=706.5 nm	1.43441	1.43388	1.43335	1.43299	1.4326	1.43191	1.43129	1.43036	1.42924	1.42812
303.15 K, Wavelength=404.7 nm	1.44902	1.44844	1.44795	1.44749	1.44689	1.44619	1.44547	1.44435	1.44351	1.44237
303.15 K, Wavelength=435.8 nm	1.44566	1.44521	1.44451	1.44394	1.44353	1.44285	1.44213	1.44101	1.44017	1.43903
303.15 K, Wavelength=486.1 nm	1.44168	1.44133	1.44074	1.44019	1.43962	1.43892	1.43821	1.43713	1.43628	1.43516
303.15 K, Wavelength=546.1 nm	1.43844	1.43797	1.43739	1.43695	1.43637	1.43567	1.43498	1.43387	1.43316	1.43194
303.15 K, Wavelength=587.6 nm	1.43671	1.43615	1.43575	1.43524	1.43466	1.43396	1.43314	1.43216	1.43125	1.43024
303.15 K, Wavelength=632.8 nm	1.43514	1.4344	1.43386	1.43339	1.43311	1.43232	1.43161	1.43065	1.42981	1.42869
303.15 K, Wavelength=644 nm	1.4348	1.43405	1.43371	1.43304	1.43277	1.43207	1.43136	1.43031	1.42947	1.42834
303.15 K, Wavelength=706.5 nm	1.43312	1.43234	1.43183	1.43136	1.43109	1.4304	1.42989	1.42884	1.428	1.42669
308.15 K, Wavelength=404.7 nm	1.44755	1.44681	1.44642	1.44583	1.44528	1.44466	1.44403	1.44294	1.44202	1.44072
308.15 K, Wavelength=435.8 nm	1.44419	1.44355	1.44296	1.44258	1.44194	1.44132	1.4406	1.43962	1.43868	1.43738
308.15 K, Wavelength=486.1 nm	1.44027	1.43972	1.43922	1.43857	1.43806	1.43743	1.43673	1.43585	1.43482	1.43353
308.15 K, Wavelength=546.1 nm	1.43699	1.43636	1.43579	1.43522	1.4348	1.43417	1.43347	1.43254	1.43163	1.43033
308.15 K, Wavelength=587.6 nm	1.43529	1.43471	1.434	1.43353	1.4331	1.43247	1.43187	1.43093	1.42993	1.42865
308.15 K, Wavelength=632.8 nm	1.43375	1.43302	1.4324	1.432	1.43158	1.43095	1.43034	1.42938	1.42838	1.42712
308.15 K, Wavelength=644 nm	1.4334	1.43286	1.4322	1.43185	1.43123	1.43061	1.43	1.42895	1.42803	1.42677
308.15 K, Wavelength=706.5 nm	1.4317	1.43089	1.4305	1.42987	1.42955	1.42893	1.42834	1.42729	1.42637	1.42508
313.15 K, Wavelength=404.7 nm	1.44615	1.44547	1.44484	1.44421	1.44353	1.4429	1.44213	1.4412	1.44027	1.4391
313.15 K, Wavelength=435.8 nm	1.4428	1.44212	1.44145	1.44077	1.44021	1.43956	1.43886	1.43787	1.43694	1.43576
313.15 K, Wavelength=486.1 nm	1.43888	1.43822	1.43758	1.43688	1.43634	1.43565	1.435	1.43401	1.43313	1.43193
313.15 K, Wavelength=546.1 nm	1.43562	1.43502	1.4344	1.43385	1.43312	1.43257	1.43175	1.43082	1.42992	1.42873
313.15 K, Wavelength=587.6 nm	1.43392	1.43331	1.43262	1.43194	1.43132	1.43077	1.43006	1.42912	1.42824	1.42705
313.15 K, Wavelength=632.8 nm	1.43238	1.43157	1.43095	1.43031	1.42988	1.42924	1.42852	1.42758	1.42673	1.42553
313.15 K, Wavelength=644 nm	1.43203	1.43122	1.43065	1.42997	1.42954	1.429	1.42818	1.42724	1.42638	1.42518
313.15 K, Wavelength=706.5 nm	1.43035	1.42953	1.42898	1.4284	1.42788	1.42723	1.42653	1.42558	1.4247	1.42352
318.15 K, Wavelength=404.7 nm	1.44474	1.44416	1.44346	1.44271	1.4421	1.44134	1.44059	1.43957	1.43859	1.43751
318.15 K, Wavelength=435.8 nm	1.44141	1.44072	1.44015	1.43938	1.43872	1.438	1.43725	1.43624	1.43526	1.43417
318.15 K, Wavelength=486.1 nm	1.43754	1.43671	1.43608	1.43535	1.43468	1.43396	1.43322	1.43243	1.43145	1.43035
318.15 K, Wavelength=546.1 nm	1.43429	1.43372	1.43312	1.43243	1.43177	1.43107	1.43022	1.42925	1.42827	1.42718
318.15 K, Wavelength=587.6 nm	1.43261	1.43191	1.43127	1.43053	1.42988	1.42918	1.42854	1.42758	1.42659	1.42551
318.15 K, Wavelength=632.8 nm	1.43109	1.43037	1.42963	1.42894	1.42826	1.42752	1.42682	1.42606	1.42507	1.424
318.15 K, Wavelength=644 nm	1.43075	1.43013	1.4294	1.42884	1.42811	1.42748	1.42668	1.42572	1.42473	1.42365
318.15 K, Wavelength=706.5 nm	1.42908	1.42827	1.4276	1.42698	1.42645	1.42575	1.425	1.42406	1.42308	1.42199
